From patent US20260028354A1, “TETRAHYDRONAPHTHALENE DERIVATIVES AS ESTROGEN RECEPTOR DEGRADERS” (REGENT OF THE UNIVERSITY OF MICHIGAN, priority 2022, published 2026)
Read-outs that look alike come from different tables or passages of the source.

Assays:
Format in all cases: cell-based
[1] = target: ER (Homo sapiens (Human), UniProt P03372); assay: In-cell western blot analysis of ER for "B" compounds; conditions: 16 hours, read-out: ICW DC50
Method: R^T 2h, gentle shaking. Negative control: cells plus secondary antibodies (no primary antibodies); e, wash x 4 with PBS+0.05-0.1% Tween 20, gentel shaking; f, anti-rabbit-680 and anti-mouse-800 (both 1:1000 in LiCor block+0.05% Tween20, R^T 1h, gentle shaking, no light. LI-COR: 0.2% to reduce background; g, wash×4 with PBS+0.05% Tween 20, gental shaking; h, add 100 μL or 25 μL of PBS to each well and read on CLX plate reader. The relative ER percentage in treated cells were obtained by comparing the values of treated wells to those in untreated and DMSO-treated wells as 100%.

[2] = Cell growth assay (WST-8) for "B" compounds; conditions: T47D cell line, read-out: Cell growth Inhibition in T47D cell line IC50
Method: Cell Growth Assay. The cells were seeded at 1500/well in 96 well plates overnight. One day after the seeding, they were treated with indicated doses of compounds respectively, 4 days after the compound treatment, 10% WST-8 reagent was added to the culture medium and incubate in a CO2 incubator at 37° C. for 2.5 hours. Before reading, the plate was mixed gently on an orbital shaker for one minute to ensure homogeneous distribution of color. The absorbance was measured of each sample using a microplate reader at a wavelength of 450 nm. The relative absorbance was calculated against the vehicle control from three individually repeats.

[3] = Western blot analysis for "B" compounds; conditions: read-out: Traditional Western Degradation Potency (DC50)
Procedure, shortened: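 Compound-treated cells lysed in RIPA buffer with protease inhibitors; equal protein (BCA) run on 10% SDS-PAGE, transferred to PVDF and probed with target antibodies. Band intensities quantified by densitometry and normalized to GAPDH.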

ER, sequence (P03372 whole entry): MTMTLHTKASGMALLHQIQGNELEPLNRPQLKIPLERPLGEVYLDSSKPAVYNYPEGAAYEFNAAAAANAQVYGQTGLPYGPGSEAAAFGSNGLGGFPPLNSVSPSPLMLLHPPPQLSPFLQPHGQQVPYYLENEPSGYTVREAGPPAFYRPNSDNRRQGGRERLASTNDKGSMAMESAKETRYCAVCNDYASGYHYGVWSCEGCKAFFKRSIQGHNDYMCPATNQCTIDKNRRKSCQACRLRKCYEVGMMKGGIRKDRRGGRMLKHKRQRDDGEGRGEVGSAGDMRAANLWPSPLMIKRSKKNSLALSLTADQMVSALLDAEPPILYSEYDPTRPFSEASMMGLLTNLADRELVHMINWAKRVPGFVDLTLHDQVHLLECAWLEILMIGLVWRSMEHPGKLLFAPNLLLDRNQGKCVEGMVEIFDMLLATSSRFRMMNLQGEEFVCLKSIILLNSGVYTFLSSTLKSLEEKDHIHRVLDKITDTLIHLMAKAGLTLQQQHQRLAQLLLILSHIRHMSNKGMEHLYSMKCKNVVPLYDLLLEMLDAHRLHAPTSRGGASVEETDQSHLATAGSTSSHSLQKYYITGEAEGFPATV

| DC50 [1] [nM] | DC50 [3] [nM] | SMILES | also measured |
| --- | --- | --- | --- |
| < 10 | – | O=C1CCC(N2Cc3cc4c(cc3C2=O)OC[C@@H]2CN(CC(=O)N3CCC5(CC3)CN(c3ccc([C@@H]6c7ccc(O)cc7CC[C@@H]6c6ccccc6)cc3)C5)CCN42)C(=O)N1 (stereo partly drawn) [Compound B160, 3-((S)-3-(2-(2-(4-((1R,2S)-6-hydroxy-2-phenyl-1,2,3,4-tetrahydronaphthalen-1-yl)phenyl)-2,7-diazaspiro[3.5]nonan-7-yl)-2-oxoethyl)-8-oxo-1,2,3,4,4a,5,8,10-octahydro-9H-pyrazino[1′,2′:4,5][1,4]oxazino[2,3-f]isoindol-9-yl)piperidine-2,6-dione] | – |
| 10 to 100 | – | O=C1CCC(N2Cc3cc4c(cc3C2=O)OC[C@@H]2CN(C(=O)CN3CCC5(CC3)CCN(c3ccc([C@@H]6c7ccc(O)cc7CC[C@@H]6c6ccccc6)cn3)CC5)CCN42)C(=O)N1 (stereo partly drawn) [Compound B158, 3-((S)-3-(2-(9-(5-((1S,2S)-6-hydroxy-2-phenyl-1,2,3,4-tetrahydronaphthalen-1-yl)pyridin-2-yl)-3,9-diazaspiro[5.5]undecan-3-yl)acetyl)-8-oxo-1,2,3,4,4a,5,8,10-octahydro-9H-pyrazino[1′,2′:4,5][1,4]oxazino[2,3-f]isoindol-9-yl)piperidine-2,6-dione] | – |
| > 100 | – | CN(CC1CC2(CCN(c3ccc([C@@H]4c5ccc(O)cc5CC[C@@H]4c4ccccc4)cc3)CC2)C1)[C@H]1C[C@H]2COc3cc4c(cc3N2C1)C(=O)N(C1CCC(=O)NC1=O)C4=O (stereo partly drawn) [Compound B331, (2S,3aS)-8-(2,6-dioxopiperidin-3-yl)-2-(((7-(4-((1R,2S)-6-hydroxy-2-phenyl-1,2,3,4-tetrahydronaphthalen-1-yl)phenyl)-7-azaspiro[3.5]nonan-2-yl)methyl)(methyl)amino)-2,3,3a,4-tetrahydro-1H,7H-pyrrolo[1′,2′:4,5][1,4]oxazino[2,3-f]isoindole-7,9(8H)-dione] | – |
| – | 10 to 100 | COc1c2c(cc3c1C(=O)N(C1CCC(=O)NC1=O)C3=O)CN(CC(=O)N1CCC3(CC1)CCN(c1ccc([C@@H]4c5ccc(O)cc5CC[C@@H]4c4ccccc4)cc1)CC3)C2 (stereo partly drawn) [Compound B136, 2-(2,6-dioxopiperidin-3-yl)-6-(2-(9-(4-((1R,2S)-6-hydroxy-2-phenyl-1,2,3,4-tetrahydronaphthalen-1-yl)phenyl)-3,9-diazaspiro[5.5]undecan-3-yl)-2-oxoethyl)-4-methoxy-6,7-dihydropyrrolo[3,4-f]isoindole-1,3(2H,5H)-dione] | IC50 ([2]; T47D): 1 to 10 nM |
| – | 10 to 100 | O=C1CCC(N2C(=O)c3cc4c(cc3C2=O)CN(CC(=O)N2CCC3(CC2)CCN(c2ccc([C@@H]5c6ccc(O)cc6CC[C@@H]5c5ccccc5)cc2)CC3)C4)C(=O)N1 (stereo partly drawn) [Compound B133, 2-(2,6-dioxopiperidin-3-yl)-6-(2-(9-(4-((1R,2S)-6-hydroxy-2-phenyl-1,2,3,4-tetrahydronaphthalen-1-yl)phenyl)-3,9-diazaspiro[5.5]undecan-3-yl)-2-oxoethyl)-6,7-dihydropyrrolo[3,4-f]isoindole-1,3(2H,5H)-dione] | IC50 [2]: 1 to 10 nM |
| – | 10 to 100 | O=C1CCC(N2C(=O)c3cc4c(cc3C2=O)CN(CC(=O)N2CCC3(CC2)CCN(c2ccc([C@@H]5c6ccc(O)cc6CCC56CCCC6)cc2)CC3)C4)C(=O)N1 (stereo in doubt) [Compound B49, 2-(2,6-dioxopiperidin-3-yl)-6-(2-(9-(4-(6'-hydroxy-3',4'-dihydro-1'H-spiro[cyclopentane-1,2'-naphthalen]-1'-yl)phenyl)-3,9-diazaspiro[5.5]undecan-3-yl)-2-oxoethyl)-6,7-dihydropyrrolo[3,4-f]isoindole-1,3(2H,5H)-dione] | IC50 ([2]; T47D): 1 to 10 nM |
| – | 10 to 100 | C[C@H]1CC2(CCN(c3ccc([C@@H]4c5ccc(O)cc5CC[C@@H]4c4ccccc4)cc3)CC2)CN1C(=O)CN1Cc2cc3c(cc2C1)C(=O)N(C1CCC(=O)NC1=O)C3=O (mixture of isomers) [Compound B23, 2-(2,6-dioxopiperidin-3-yl)-6-(2-((S)-8-(4-((1R,2S)-6-hydroxy-2-phenyl-1,2,3,4-tetrahydronaphthalen-1-yl)phenyl)-3-methyl-2,8-diazaspiro[4.5]decan-2-yl)-2-oxoethyl)-6,7-dihydropyrrolo[3,4-f]isoindole-1,3(2H,5H)-dione] | IC50 ([2]; T47D): > 10 nM |
| – | 10 to 100 | O=C1CCC(N2C(=O)c3cc4c(cc3C2=O)CN(CC(=O)N2CCC3(CC2)CCN(c2ccc([C@@H]5c6ccc(O)cc6CC[C@@H]5c5ccccc5)cc2)CC3)C4)C(=O)N1 (mixture of isomers) [Compound B12, 2-(2,6-dioxopiperidin-3-yl)-6-(2-(9-(4-((1R,2S)-6-hydroxy-2-phenyl-1,2,3,4-tetrahydronaphthalen-1-yl)phenyl)-3,9-diazaspiro[5.5]undecan-3-yl)-2-oxoethyl)-6,7-dihydropyrrolo[3,4-f]isoindole-1,3(2H,5H)-dione] | IC50 [2]: > 10 nM |

Further lines, the compound ahead of its results:

| SMILES | DC50 [1] [nM] | DC50 [3] [nM] | also measured |
| --- | --- | --- | --- |
| O=C1CCC(N2Cc3c(ccc4c3OC[C@H]3CN(CC5CC6CN(c7ccc([C@@H]8c9ccc(O)cc9CC[C@@H]8c8ccccc8)cc7)CC6C5)CCN43)C2=O)C(=O)N1 (stereo partly drawn) [Compound B320, 3-((5aR)-7-(((3aRS,6aSR)-2-(4-((1R,2S)-6-hydroxy-2-phenyl-1,2,3,4-tetrahydronaphthalen-1-yl)phenyl)octahydrocyclopenta[c]pyrrol-5-yl)methyl)-1-oxo-1,3,5,5a,6,7,8,9-octahydro-2H-pyrazino[1′,2′:4,5][1,4]oxazino[2,3-c]isoindol-2-yl)piperidine-2,6-dione] | > 100 | – | – |
| O=C1CC[C@H](N2Cc3c(ccc4c3OC[C@H]3CN(CC5CCC6(CN(c7ccc([C@@H]8c9ccc(O)cc9CC[C@@H]8c8ccccc8)cc7)C6)OC5)CCN43)C2=O)C(=O)N1 (stereo partly drawn) [Compound B348, (3S)-3-((5aR)-7-((2-(4-((1R,2S)-6-hydroxy-2-phenyl-1,2,3,4-tetrahydronaphthalen-1-yl)phenyl)-5-oxa-2-azaspiro[3.5]nonan-7-yl)methyl)-1-oxo-1,3,5,5a,6,7,8,9-octahydro-2H-pyrazino[1′,2′:4,5][1,4]oxazino[2,3-e]isoindol-2-yl)piperidine-2,6-dione] | < 10 | – | – |
| O=C1CCC(Nc2ccc(N3CCN(CC4CCC5(CCN(c6ccc([C@@H]7c8ccc(O)cc8CC[C@@H]7c7ccccc7)cc6)CC5)OC4)CC3)c(F)c2)C(=O)N1 (stereo partly drawn) [Compound B382, 3-((3-fluoro-4-(4-((9-(4-((1R,2S)-6-hydroxy-2-phenyl-1,2,3,4-tetrahydronaphthalen-1-yl)phenyl)-1-oxa-9-azaspiro[5.5]undecan-3-yl)methyl)piperazin-1-yl)phenyl)amino)piperidine-2,6-dione] | > 100 | – | – |
| O=C1CCC(Nc2ccc(N3CCN(CC4CCN(c5ccc([C@@H]6c7ccc(O)cc7CC[C@@H]6c6ccccc6)cc5)CC4)CC3)c(F)c2)C(=O)N1 (stereo partly drawn) [Compound B380, 3-((3-fluoro-4-(4-((1-(4-((1R,2S)-6-hydroxy-2-phenyl-1,2,3,4-tetrahydronaphthalen-1-yl)phenyl)piperidin-4-yl)methyl)piperazin-1-yl)phenyl)amino)piperidine-2,6-dione] | > 100 | – | – |
| O=C1CCC(Nc2ccc(N3CCN(CC4CC5(CCN(c6ccc([C@@H]7c8ccc(O)cc8CC[C@@H]7c7ccccc7)cc6)CC5)C4)CC3)c(F)c2)C(=O)N1 (stereo partly drawn) [Compound B381, 3-((3-fluoro-4-(4-((7-(4-((1R,2S)-6-hydroxy-2-phenyl-1,2,3,4-tetrahydronaphthalen-1-yl)phenyl)-7-azaspiro[3.5]nonan-2-yl)methyl)piperazin-1-yl)phenyl)amino)piperidine-2,6-dione] | > 100 | – | – |
| O=C1CCC(N2Cc3cc4c(cc3C2=O)OC[C@@H]2CN(CC3CC5CN(c6ccc([C@@H]7c8ccc(O)cc8CC[C@@H]7c7ccccc7)cc6)CC5C3)CCN42)C(=O)N1 (mixture of isomers) [Compound B321, 3-((4aS)-3-(((3aRS,6aSR)-2-(4-((1R,2S)-6-hydroxy-2-phenyl-1,2,3,4-tetrahydronaphthalen-1-yl)phenyl)octahydrocyclopenta[c]pyrrol-5-yl)methyl)-8-oxo-1,2,3,4,4a,5,8,10-octahydro-9H-pyrazino[1′,2′:4,5][1,4]oxazino[2,3-f]isoindol-9-yl)piperidine-2,6-dione] | > 100 | – | – |
| O=C1CCC(N2Cc3cc4c(cc3C2=O)OC[C@@H]2CN(CC(=O)N3C[C@@H]5CN(c6ccc([C@@H]7c8ccc(O)cc8CC[C@@H]7c7ccccc7)cc6)C[C@@H]5C3)CCN42)C(=O)N1 (stereo partly drawn) [Compound B156, 3-((S)-3-(2-((3aR,6aS)-5-(4-((1R,2S)-6-hydroxy-2-phenyl-1,2,3,4-tetrahydronaphthalen-1-yl)phenyl)hexahydropyrrolo[3,4-c]pyrrol-2(1H)-yl)-2-oxoethyl)-8-oxo-1,2,3,4,4a,5,8,10-octahydro-9H-pyrazino[1′,2′:4,5][1,4]oxazino[2,3-f]isoindol-9-yl)piperidine-2,6-dione] | > 100 | – | – |
